Measured values reported in patent publication US5525627A, “Esters of acyl carnitines with long-chain aliphatic alcohols and pharmaceutical compositions containing same having antimycotic activity” (Sigma-Tau Industrie Farmaceutiche Riunite S.p.A., priority 1992, dated 1996).

Legend:
[1] = tested on: Microsporum canis (IHEM 3522); test: MIC for dermatophytic fungi; format: cell-based; conditions: 35° C., 96 hours, read-out: Minimal Inhibitory Concentration (MIC)
Procedure: (§1) The following strains were used: Trichophyton menthagrophytes ATCC 9533, Trichophyton rubrum IHEM 4274, Microsporum canis IHEM 3522, Epydermophyton floccosum IHEM 3495. The tested substances were: ST 722, ST 1033, ST 1037, ST 1050, ST 1051, ST 1052,. ST 1053.
(§2) The assay was performed following the same procedure described for the yeasts, by using 7-day fungi cultures grown at 30° C. in Potato Dextrose agar, and harvested with Sabouraud broth and Tween 80 (0.5%).
(§3) After washing with Yeast Nitrogen Base, supplemented with asparagine and glucose (as carbon source), the fungal suspension was fragmented using a tissue grinder until the largest clumps or aggregates were undetectable within the grinder. This fungal suspension was then appropriately diluted in YNB to yield a concentration of 2.0×10^5 infective particles/ml (small mycelium fragments, micro-and macroaleuriospores).
(§4) Volumes of 100 μl both of the fungal suspensions and substance solutions, two-fold serially diluted in assay medium, were distributed into each well of a microtiter plate (96 wells, round bottom), which was incubated at 35° C. for 96 hours.

[2] = tested on: Epidermophyton floccosum (IHEM 3495); test: MIC for dermatophytic fungi; format: cell-based; conditions: 35° C., 96 hours, read-out: Minimal Inhibitory Concentration (MIC)
Procedure: as §1, §2, §3, §4

[3] = tested on: Trichophyton rubrum (IHEM 4274); test: MIC for dermatophytic fungi; format: cell-based; conditions: 35° C., 96 hours, read-out: Minimal Inhibitory Concentration (MIC)
Procedure: as §1, §2, §3, §4

[4] = tested on: Trichophyton menthagrophites (ATCC 9533); test: MIC for dermatophytic fungi; format: cell-based; conditions: ATCC9533, 35° C., 96 hours, read-out: Minimal Inhibitory Concentration (MIC)
Procedure: as §1, §2, §3, §4

[5] = tested on: yeast-like fungi; test: MIC / MFC for yeast-like fungi, all strains; format: cell-based, Candida, Cryptococcus, Saccharomyces, Torulopsis; conditions: versus susceptible strains; read-out: Mean MIC values
Procedure: (§5) The following strains were used (the number of strains is in brackets): Candida (13); Criptococcus (2); Saccharormyces (1); Torulopsis (1).
(§6) Yeast Nitrogen Base supplemented with 0.15% asparagine and 1.0% glucose (as carbon source) was the medium utilized in the assays.
(§7) This medium was buffered with 0.165 M 2-(N-morpholino) propane sulfonic acid (MOPS), a non-chelating buffer. […]
(§8) The inoculum was prepared from an overnight broth culture (a 48-hour culture only for Cryptococcus) in Sabouraud broth and appropriately diluted to yield a final suspension containing approximately 5.0×10^6 Colony Forming Units per ml (CFU/ml), when compared to the Mc Farland's standard control (BRAY W. E., Clinical Laboratory Methods, 5th Ed. C. V. MOSBY, St. Louis, Mo, 1957).
(§9) After further diluting (1:50), a […] volume of such fungal suspensions and an equal volume of the substance solutions were distributed into each well of a microtiter plate (96 wells, round bottom). Such a procedure eventually allowed for an "in vitro" antimycotic activity assay utilizing final fungal inocula of approximately 5.0×10^4 CFU/ml.
The minimal fungicidal concentration was evaluated by spot-transferring onto Petri dishes, containing Sabouraud agar, 0.01-ml volumes of all the samples showing no visible fungal growth.

[6] = tested on: Penicillium sp. (1302); test: MIC for filamentous fungi; format: cell-based; conditions: read-out: Minimal Inhibitory Concentration (MIC)
Excerpt: (§10) The following strains were used (the number of strains is in brackets): Aspergillus (5); Fusarium (1); Mucor (1); Penicillium (1).
(§11) The tested substances were: ST 712, ST 722, ST 982, ST 983, ST 1000, ST 1001, ST 1032, ST 1033, ST 1034, ST 1036, ST 1037, ST 1038, ST 1050, ST 1051, ST 1052, ST 1053. The assay medium was the same as the one used in the previous study. The conidia from 72-hour cultures in Sabouraud agar, collected by washing with Sabouraud medium and Tween 80 (one drop of Tween per 10 ml of medium), were utilized as inoculum (5.0×10^4 CFU/ml).
(§12) The assay was performed using the same procedure as described for yeast-like fungi.
(§13) Also the evaluation of MIC and MFC was as reported previously.

[7] = tested on: Aspergillus fumigatus (ATCC 28212); test: MIC for filamentous fungi; format: cell-based; conditions: ATCC28212, read-out: Minimal Inhibitory Concentration (MIC)
Excerpt: as §10, §11, §12, §13

[8] = tested on: Mucor mucedo (ATCC 7941); test: MIC for filamentous fungi; format: cell-based; conditions: ATCC7941, read-out: Minimal Inhibitory Concentration (MIC)
Excerpt: as §10, §11, §12, §13

[9] = tested on: Fusarium sp. (ISS 1); test: MIC for filamentous fungi; format: cell-based; conditions: read-out: Minimal Inhibitory Concentration (MIC)
Excerpt: as §10, §11, §12, §13

[10] = tested on: Aspergillus niger (ATCC 16404); test: MIC for filamentous fungi; format: cell-based; conditions: ATCC16404, read-out: Minimal Inhibitory Concentration (MIC)
Excerpt: as §10, §11, §12, §13

[11] = tested on: dermatophytic fungi; test: MIC / MFC for dermatophytic fungi, all strains; format: cell-based, Trichophyton, Microsporum, Epidermophyton; conditions: versus susceptible strains
Procedure: as §1, §2, §3, §4

[12] = tested on: Candida albicans (562); test: MIC for yeast and yeast-like strains; format: cell-based; conditions: 48 hours, 35° C., read-out: Minimal Inhibitory Concentration (MIC)
Procedure: as §5, §6, §7, §8, §9

[13] = tested on: Candida albicans (Ca 2); test: MIC for yeast and yeast-like strains; format: cell-based; conditions: 48 hours, 35° C., read-out: Minimal Inhibitory Concentration (MIC)
Procedure: as §5, §6, §7, §8, §9

[14] = tested on: Saccharomyces cerevisiae (ATCC 7752); test: MIC for yeast and yeast-like strains; format: cell-based; conditions: ATCC7752, 48 hours, 35° C., read-out: Minimal Inhibitory Concentration (MIC)
Procedure: as §5, §6, §7, §8, §9

[15] = tested on: Candida tropicalis (5705); test: MIC for yeast and yeast-like strains; format: cell-based; conditions: 48 hours, 35° C., read-out: Minimal Inhibitory Concentration (MIC)
Procedure: as §5, §6, §7, §8, §9

[16] = tested on: Candida krusei (ISS 1); test: MIC for yeast and yeast-like strains; format: cell-based; conditions: Pichia kudriavzevii; 48 hours, 35° C.; read-out: Minimal Inhibitory Concentration (MIC)
Procedure: as §5, §6, §7, §8, §9

[17] = tested on: filamentous fungi; test: MIC / MFC for filamentous fungi, all strains; format: cell-based, Aspergillus, Fusarium, Mucor, Penicillium; conditions: versus susceptible strains; read-out: Mean MIC values
Excerpt: as §10, §11, §12, §13

SMILES	MIC [1] [µg/mL]	MIC [2] [µg/mL]	MIC [3] [µg/mL]	MIC [4] [µg/mL]	MIC [5] [µg/mL]	MIC [6] [µg/mL]	MIC [7] [µg/mL]	MIC [8] [µg/mL]	MIC [9] [µg/mL]	MIC [10] [µg/mL]	MIC [11] [µg/mL]	MIC [12] [µg/mL]	MIC [13] [µg/mL]	MIC [14] [µg/mL]	MIC [15] [µg/mL]	MIC [16] [µg/mL]	MIC [17] [µg/mL]
CCCCCCCCCCCCCOC(=O)C[C@H](C[N+](C)(C)C)OC(=O)C(C)CCCC (stereo partly drawn) [ST 1051]	12.5	25	6.25	12.5	2.8	3.12	3.12	6.25	6.25	6.25	14.1	3.12	1.56	3.12	3.12	3.12	6.87
CCCCCCCCCCCCCOC(=O)C[C@H](C[N+](C)(C)C)OC(=O)CCCCC [ST 1052]	6.25	25	6.25	12.5	2.8	3.12	3.12	6.25	6.25	3.12	12.5	3.12	1.56	3.12	3.12	3.12	4.37
CCCCCCCCCCCCCOC(=O)C[C@H](C[N+](C)(C)C)OC(=O)CCCCCCC [ST 1053]	6.25	50	6.25	6.25	5.62	3.12	6.25	12.5	6.25	3.12	14.1	12.5	3.12	3.12	6.25	3.12	6.24
